Like-named read-outs stand apart in the source and are kept apart here. Each block holds one molecule with its values, some of them ahead of it.
Experiments:
[1] = Pharmacokinetics (biodistribution 1-24 h) in non-tumor bearing mice; format: in vivo; conditions: for tissue uptake at 1 h / tissue uptake at 4 h / tissue uptake at 12 h / tissue uptake at 24 h: female, BALB/c, mouse, 200 umol, total radioactivity; for tissue uptake at 1 h: 1 hour after injection; for tissue uptake at 1 h / tissue uptake at 4 h: ^61Cu; for tissue uptake at 4 h: 4 hours after injection; for tissue uptake at 12 h: 12 hours after injection; for tissue uptake at 12 h / tissue uptake at 24 h: ^64Cu; for tissue uptake at 24 h: 24 hours after injection
Protocol: The biodistribution at the investigate time points was performed as described in the Example 9. The data were combined with the results obtained from the groups of xenografts at 1 hour and 4 hours p.i., as the biodistribution in nude mice was the same as in the healthy mice. The results were expressed as described in the Example 10.

in vivo = conditions: athymic nude Foxn1+Foxn1+, mouse, iv, 200 umol, total radioactivity
Protocol: The tumors were allowed to grow for 1-3 weeks before commencement of the experiments.
The mice were randomly distributed in groups and euthanized at 1 and at 4 hours post-injection. The organs of interest were collected, rinsed, blotted, weighed and counted in a gamma counter. The results are expressed as percentage of injected activity per gram (% IA/g), representing the mean±standard deviation of n=4-8 mice per group and they were obtained by extrapolation from counts of an aliquot taken from the injected solution as standard.
The mice were randomly distributed in groups, injected with the radiotracer under investigation and euthanized at 1 and at 4 hours post-injection of the radiotracers under investigation. The organs of interest were collected, rinsed, blotted, weighed and counted in a gamma counter. The results are expressed as percentage of injected activity per gram (% IA/g), representing the mean±standard deviation of all mice per group and they were obtained by extrapolation from counts of an aliquot taken from the injected solution as standard.
The mice were randomly distributed in groups and euthanized at 4 hours post-injection. The organs of interest were collected, rinsed, blotted, weighed, and their respective radioactivity was counted in a gamma counter.

[2] = Lipophilicity, log D by shake-flask method (1-octanol/PBS pH 7.4); format: physicochemical; conditions: Table 17, mean ± SD
Protocol: The radiotracer (1 μM) was added to a 50:50 pre-saturated mixture of 1-octanol and phosphate buffered saline (PBSpH 7.4). The solution was vortexed for 30 min and then centrifuged at 3,000 rpm to achieve a phase separation. Aliquots from each phase were collected and measured in a gamma-counter. The distribution coefficient was calculated as the average of the logarithmic values of the ratio between the radioactivity in the organic and the PBS phase.
Table 17. Lipophilicity expressed as the log distribution coefficient D (log D(Octanol/PBS pH7.4)) of ^61Cu-radiotracers versus ^68Ga-radiotracers (reference radiotracers).
In a pre-lubricated Eppendorf tube, a pre-saturated mixture of 500 μL of 1-octanol and 500 μL of PBS pH 7.4 (phosphate-buffered saline) were added. An aliquot of […] in 10 μL of the radioligand was added to this mixture, shaken for 30 min, and then centrifuged at 3000 rcf for 10 min to achieve phase separation. Aliquots of 100 μL were removed from the 1-octanol and from the PBS phases, and the activity was measured in a […]. The partition coefficient was calculated as the average log ratio value of the radioactivity in the organic fraction and PBS fraction.

LNCaP xenografts = experiment: Quantitative biodistribution in LNCaP xenografted mice; format: in vivo; conditions: for Biodistribution Adrenal / Biodistribution Blood / Biodistribution Bone / Biodistribution Heart / Biodistribution Intestine / Biodistribution Kidney / Biodistribution LNCaP-tumor / Biodistribution Liver / Biodistribution Lung / Biodistribution Muscle / Biodistribution Pancreas / Biodistribution Salivary gland / Biodistribution Spleen / Biodistribution Stomach / Ratio Tumor/Blood / Ratio Tumor/Kidney / Ratio Tumor/Liver / Ratio Tumor/Muscles: LNCap xenograft mice
[3] = adrenal, read-out: Biodistribution Adrenal
[4] = blood, read-out: Biodistribution Blood
[5] = femur, read-out: Biodistribution Femur
[6] = heart, read-out: Biodistribution Heart
[7] = intestine, read-out: Biodistribution Intestine
[8] = kidneys, read-out: Biodistribution Kidneys
[9] = liver, read-out: Biodistribution Liver
[10] = lung, read-out: Biodistribution Lung
[11] = muscle, read-out: Biodistribution Muscles
[12] = pancreas, read-out: Biodistribution Pancreas
[13] = pituitary, read-out: Biodistribution Pituitary
[14] = spleen, read-out: Biodistribution Spleen
[15] = stomach, read-out: Biodistribution Stomach

- tissue uptake at 1 h [1, 3]: 1.06 ± 0.24 %ID/g
- tissue uptake at 4 h [1, 3]: 0.63 ± 0.22 %ID/g
- tissue uptake at 1 h [1, 4]: 0.24 ± 0.08 %ID/g
- tissue uptake at 4 h [1, 4]: 0.04 ± 0.02 %ID/g
- tissue uptake at 12 h [1, 4]: 0.04 ± 0.01 %ID/g
- tissue uptake at 24 h [1, 4]: 0.03 %ID/g
- tissue uptake at 1 h [1, 5]: 0.45 ± 0.14 %ID/g
- tissue uptake at 4 h [1, 5]: 0.28 ± 0.11 %ID/g
- tissue uptake at 24 h [1, 5]: 0.06 ± 0.01 %ID/g
- tissue uptake at 1 h [1, 6]: 0.17 ± 0.03 %ID/g
- tissue uptake at 4 h [1, 6]: 0.07 ± 0.02 %ID/g
- tissue uptake at 12 h [1, 6]: 0.09 ± 0.02 %ID/g
- tissue uptake at 24 h [1, 6]: 0.07 ± 0.02 %ID/g
- tissue uptake at 1 h [1, 7]: 0.96 ± 0.12 %ID/g
- tissue uptake at 4 h [1, 7]: 0.69 ± 0.19 %ID/g
- tissue uptake at 1 h [1, 8]: 17.2 ± 4.46 %ID/g
- tissue uptake at 4 h [1, 8]: 7.64 ± 3.85 %ID/g
- tissue uptake at 1 h [1, 9]: 0.35 ± 0.08 %ID/g
- tissue uptake at 4 h [1, 9]: 0.28 ± 0.08 %ID/g
- tissue uptake at 1 h [1, 10]: 1.07 ± 0.17 %ID/g
- tissue uptake at 4 h [1, 10]: 0.5 ± 0.24 %ID/g
- tissue uptake at 1 h [1, 11]: 0.16 ± 0.05 %ID/g
- tissue uptake at 4 h [1, 11]: 0.07 ± 0.03 %ID/g
- tissue uptake at 12 h [1, 11]: 0.02 ± 0.01 %ID/g
- tissue uptake at 24 h [1, 11]: 0.01 %ID/g
- tissue uptake at 1 h [1, 12]: 2.71 ± 0.4 %ID/g
- tissue uptake at 4 h [1, 12]: 0.6 ± 0.19 %ID/g
- tissue uptake at 24 h [1, 12]: 0.07 ± 0.01 %ID/g
- tissue uptake at 1 h [1, 13]: 3.39 ± 1.11 %ID/g
- tissue uptake at 4 h [1, 13]: 2.71 ± 1.84 %ID/g
- tissue uptake at 1 h [1, 14]: 0.23 ± 0.04 %ID/g
- tissue uptake at 4 h [1, 14]: 0.1 ± 0.03 %ID/g
- tissue uptake at 12 h [1, 14]: 0.1 ± 0.02 %ID/g
- tissue uptake at 24 h [1, 14]: 0.07 ± 0.02 %ID/g
- tissue uptake at 1 h [1, 15]: 2.62 ± 0.48 %ID/g
- tissue uptake at 4 h [1, 15]: 1.35 ± 0.26 %ID/g
- blood clearance ([1]; healthy mice, 1 to 24 hours after injection): very fast blood clearance
SMILES: C[C@@H](O)[C@@H]1NC(=O)[C@H](CCCCN)NC(=O)[C@@H](Cc2c[nH]c3ccccc23)NC(=O)[C@H](Cc2ccc(O)cc2)NC(=O)[C@@H](NC(=O)[C@@H](Cc2ccccc2)NC(=O)CCC(C(=O)O)N2CCN(CC(=O)O)CCN(CC(=O)O)CC2)CSSC[C@@H](C(=O)N[C@H](CO)[C@@H](C)O)NC1=O (single isomer, unassigned) [[^61/^64Cu]Cu-NODAGA-TOC, metal not drawn]

- tissue uptake at 1 h (in vivo; Biodistribution HEK-SST2): 8.88 ± 3.19 %ID/g
- tissue uptake at 1 h (in vivo; Biodistribution Kidney): 12.5 ± 2.25 %ID/g
SMILES: C[C@@H](O)[C@@H]1NC(=O)[C@H](CCCCN)NC(=O)[C@@H](Cc2c[nH]c3ccccc23)NC(=O)[C@H](Cc2ccc(O)cc2)NC(=O)[C@@H](NC(=O)[C@@H](Cc2ccccc2)NC(=O)CCC(C(=O)O)N2CCN(CC(=O)O)CCN(CC(=O)O)CC2)CSSC[C@@H](C(=O)N[C@H](CO)[C@@H](C)O)NC1=O (single isomer, unassigned) [[^61Cu]Cu-NODAGA-TOC, metal not drawn]

- logD ([2]; pH 7.4, shake-flask, read-out: log D(O/PBS pH 7.4)): -2.48 ± 0.3
SMILES: C[C@@H](O)[C@@H]1NC(=O)[C@H](CCCCN)NC(=O)[C@@H](Cc2c[nH]c3ccccc23)NC(=O)[C@H](Cc2ccc(O)cc2)NC(=O)[C@@H](NC(=O)[C@@H](Cc2ccccc2)NC(=O)CCC(C(=O)O)N2CCN(CC(=O)O)CCN(CC(=O)O)CC2)CSSC[C@@H](C(=O)N[C@H](CO)[C@@H](C)O)NC1=O (single isomer, unassigned) [[^68Ga]Ga-NODAGA-TOC, metal not drawn]

SMILES: O=C(O)CC[C@H](NC(=O)N[C@@H](CCCCNC(=O)[C@H](Cc1ccc2ccccc2c1)NC(=O)c1ccc(CNC(=O)[C@H](CCC(=O)O)NC(=O)[C@H](CCC(=O)O)NC(=O)c2ccc([18F])nc2)cc1)C(=O)O)C(=O)O [[^18F]PSMA-1007]
- log D(O/PBS pH 7.4) ([2]; shake-flask): −3.02 ± 0.11
- tumor uptake (LNCaP xenografts; 4h p.i., LNCaP xenograft mice, comparison with reference radiotracer, p=0.0145): 6.28±2.19 % IA/g
- Biodistribution Adrenal (LNCaP xenografts; 1 h after injection): 7.18 ± 2.20 % IA/g
- Biodistribution Blood (LNCaP xenografts; 1 h after injection): 0.41 ± 0.11 % IA/g
- Biodistribution Bone (LNCaP xenografts; 1 h after injection): 0.94 ± 0.13 % IA/g
- Biodistribution Heart (LNCaP xenografts; 1 h after injection): 1.25 ± 0.29 % IA/g
- Biodistribution Intestine (LNCaP xenografts; 1 h after injection): 1.04 ± 0.33 % IA/g
- Biodistribution Kidney (LNCaP xenografts; 1 h after injection): 100 ± 17 % IA/g
- Biodistribution LNCaP-tumor (LNCaP xenografts; 1 h after injection): 9.70 ± 2.57 % IA/g
- Biodistribution Liver (LNCaP xenografts; 1 h after injection): 0.93 ± 0.26 % IA/g
- Biodistribution Lung (LNCaP xenografts; 1 h after injection): 2.08 ± 0.24 % IA/g
- Biodistribution Muscle (LNCaP xenografts; 1 h after injection): 0.53 ± 0.09 % IA/g
- Biodistribution Pancreas (LNCaP xenografts; 1 h after injection): 1.32 ± 0.58 % IA/g
- Biodistribution Salivary gland (LNCaP xenografts; 1 h after injection): 2.54 ± 0.72 % IA/g
- Biodistribution Spleen (LNCaP xenografts; 1 h after injection): 11.0 ± 1.1 % IA/g
- Biodistribution Stomach (LNCaP xenografts; 1 h after injection): 0.75 ± 0.15 % IA/g
- Ratio Tumor/Blood (LNCaP xenografts; 1 h after injection): 25.8 ± 11.5
- Ratio Tumor/Kidney (LNCaP xenografts; 1 h after injection): 0.10 ± 0.03
- Ratio Tumor/Liver (LNCaP xenografts; 1 h after injection): 11.3 ± 4.5
- Ratio Tumor/Muscles (LNCaP xenografts; 1 h after injection): 19.2 ± 6.5
- Biodistribution Adrenal (LNCaP xenografts; 4 h after injection): 8.03 ± 2.66 % IA/g
- Biodistribution Blood (LNCaP xenografts; 4 h after injection): 0.17 ± 0.04 % IA/g
- Biodistribution Bone (LNCaP xenografts; 4 h after injection): 0.62 ± 0.11 % IA/g
- Biodistribution Heart (LNCaP xenografts; 4 h after injection): 0.53 ± 0.23 % IA/g
- Biodistribution Intestine (LNCaP xenografts; 4 h after injection): 0.43 ± 0.22 % IA/g
- Biodistribution Kidney (LNCaP xenografts; 4 h after injection): 132 ± 9 % IA/g
- Biodistribution LNCaP-tumor (LNCaP xenografts; 4 h after injection): 6.28 ± 2.19 % IA/g
- Biodistribution Liver (LNCaP xenografts; 4 h after injection): 0.32 ± 0.16 % IA/g
- Biodistribution Lung (LNCaP xenografts; 4 h after injection): 1.61 ± 0.58 % IA/g
- Biodistribution Muscle (LNCaP xenografts; 4 h after injection): 0.27 ± 0.11 % IA/g
- Biodistribution Pancreas (LNCaP xenografts; 4 h after injection): 0.80 ± 0.32 % IA/g
- Biodistribution Salivary gland (LNCaP xenografts; 4 h after injection): 1.62 ± 0.43 % IA/g
- Biodistribution Spleen (LNCaP xenografts; 4 h after injection): 8.33 ± 2.11 % IA/g
- Biodistribution Stomach (LNCaP xenografts; 4 h after injection): 0.47 ± 0.16 % IA/g
- Ratio Tumor/Blood (LNCaP xenografts; 4 h after injection): 42.7 ± 16.4
- Ratio Tumor/Kidney (LNCaP xenografts; 4 h after injection): 0.04 ± 0.01
- Ratio Tumor/Liver (LNCaP xenografts; 4 h after injection): 18.4 ± 8.5
- Ratio Tumor/Muscles (LNCaP xenografts; 4 h after injection): 20.1 ± 2.5
